Source: patent US20260199274A1 (priority 2022, published 2026)

How the values were obtained:
[1] = tested on: A/Puerto Rico/8/1934 H1N1 (PR8) virus; assay type: cell-based, influenza A virus
[2] = tested on: CCL2/MCP-1, CCL5/RANTES, CXCL1/GROa, CXCL10/IP-10, IL-6 and CXCL8/IL-8; test: Protein-array of immune mediators in supernatants of IAV-infected BEAS-2B cells; assay type: cell-based, human; conditions: 3.4 mM
[3] = tested on: IL-6 production; test: IL-6 ELISA in BEAS-2B cells stimulated with inflammatory agonists (PIC, PMA, TNFα); assay type: cell-based, human; conditions: increasing doses of CA 16 h
[4] = tested on: Delta strain of SARS-CoV-2; assay type: cell-based
[5] = tested on: IL-6 production; test: IL-6 ELISA in PBEC (IAV, poly(I:C) or PMA); assay type: cell-based, human
[6] = tested on: IL-6 production; test: hIL-6 in IAV-infected human precision-cut lung slices (PCLS); assay type: cell-based; conditions: 3.4 mM CA 2 hpi, 48 hpi
[7] = tested on: BEAS-2B cells; test: BEAS-2B tolerance: Ki67, mitotracker, DHR 123 and Live Dead staining; assay type: cell-based, human
Experimental: (FIG. 8a) Human bronchial epithelial BEAS-2B cells were treated with PBS or with 3.4 mM of cis-aconitate (CA), itaconate (Ita), oxaloacetate (Oxa), isocitrate (IsoC), citrate (Cit), fumarate (Fum), pyruvate (Pyr) or glucose (Glc) for 16 h and cytotoxicity was assessed by MTS assay. BEAS-2B cells were treated (CA+) or not (CA-) with 3.4 mM of CA for 6 or 24 h (FIG. 8b, 8c, 8d) or with 0, 1.2, 2.3 or 3.4 mM of CA for 20 h (FIG. 8e). Cell proliferation (FIG. 8b), mitochondrial labeling (FIG. 8c), ROS production (FIG. 8d) and cell viability (FIG. 8e) were analyzed by Ki67, mitotracker, DHR 123 and Live Dead staining respectively. (FIG. 8f) Human primary bronchial epithelial cells (PBEC) were treated with 0.6, 3.4 or 5.7 mM CA for 16 h and cytotoxicity was assessed by a MTS test. Data are represented as mean±/−SEM of 4 (FIG. 8b-f) or 5 (FIG. 8a) independent experiments. Statistical analysis was performed using the Kruskal-Wallis test with Dunn's multiple comparison test (FIGS. 8a, 8e and 8f) or Friedman test with Dunn's multiple comparison test (FIG. 8b-8d).
Cell proliferation and cytotoxicity assays. Cells in 96-well plates were washed twice with PBS and incubated for 1 h at 37° C. with 100 μL of MTS reagent diluted 1/5 for the cell proliferation test. Optical density was measured at 490 nm. For the cytotoxicity assay, cells were stained for 15 min at 4° C. with Live/Dead or with anti-Ki67, mitotracker and […] flow cytometry analysis.

[8] = tested on: influenza A/pandemic/2009 H1N1 (H1N1p) strain; assay type: cell-based, influenza A virus
[9] = tested on: IAV-triggered cell death; assay type: cell-based, human
[10] = tested on: Wuhan strain of SARS-CoV-2; test: IL-6 ELISA in Vero epithelial cells infected with SARS-CoV-2 Wuhan strain; assay type: cell-based; conditions: MOI=1, 1 mg/ml cis-aconitate for 16 hours from 4 h post-infection
[11] = tested on: NF-kB activity / TNFα secretion; test: Murine model of acute lung injury induced by lipopolysaccharide; assay type: in vivo, mice; conditions: 10 μg LPS
Experimental: NF-kB transgenic Balb/c (FIG. 11a, 11b) or C57Bl/6 (FIG. 11c) mice were instilled with 10 μg of lipopolysaccharides (LPS) and treated 15 minutes post-stimulation with 0.6 mg of cis-aconitate (CA) intranasally. 24 h post-instillation, mice were anesthetized. In the group of NF-kB transgenic Balb/c animals, luciferine was intranasally instilled (0.75 mg·kg^−1) and bioluminescence was measured using the IVIS imaging system (FIG. 11a, 11b). In the group of C57Bl/6 mice, BALs fluids were collected to determine TNFα levels (FIG. 11c).). Bioluminescence was then measured using the IVIS system. […] Statistical analysis was performed using the Mann-Whitney test.
Then, we further examined the anti-inflammatory effect of cis-aconitate administered intranasally in a valuable murine model of acute lung injury induced by lipopolysaccharide ([63]), a cell wall component characteristic of Gram-negative bacteria.

[12] = 0.6 mg intranasally every second day for 15 days
[13] = tested on: IL-6 production; test: hIL-6 ELISA in supernatants of IAV-infected BEAS-2B cells; assay type: cell-based, human
[14] = tested on: influenza B Yamagata (B/Paris/234/2013) virus; test: Plaque-Forming Units assay, BEAS-2B cells infected with IBV; assay type: cell-based; conditions: 3.4 mM for 16 h from 4 h post-infection
[15] = tested on: ERK, AKT and NF-κB signaling pathways; test: Western blotting of phosphorylated ERK1/2, AKT and p65 in BEAS-2B cells; assay type: cell-based, human
[16] = biological target: viral polymerase (Influenza A virus, UniProt P03427+P03430+P15659); assay type: cell-based

With `O=C(O)/C=C(/CC(=O)O)C(=O)O` [cis-aconitate] the “viral particles production (PFU)” value [1] was “at least one log decrease”, the “IAV-induced expression of CCL2/MCP-1, CCL5/RANTES, CXCL1/GROa, CXCL10/IP-10, IL-6 and CXCL8/IL-8” value [2] was “inhibited” and the “IL-6 production, dose-dependent” value ([3]; BEAS-2B stimulated with 20 ng/ml TNFα) was “trend”. For the same compound, the “IL-6 production, dose-dependent” value ([3]; BEAS-2B stimulated with 50 nM PMA) was “significant decrease”, the “IL-6 production, dose-dependent” value ([3]; BEAS-2B stimulated with 2 μg/mL Poly (I:C)) was “significant decrease” and the IL-6 production [4] was “significant reduction”. The “reduction of IAV-induced hIL-6 production” value [5] was “up to 80%”, the “pro-inflammatory cytokine (IL-6) expression induced by PMA” value ([5]; PBEC, PMA 4 h, then CA 20 h) was “dose-dependent decrease” and the “pro-inflammatory cytokine (IL-6) expression induced by PIC” value ([5]; PBEC, poly(I:C) 4 h, then CA 20 h) was “dose-dependent decrease”. The “reduction in IL-6 production” value [6] was “twofold”, the “cell viability (Live Dead)” value ([7]; BEAS-2B, 0, 1.2, 2.3 or 3.4 mM, 20 h) was “did not impact” and the “ROS production (DHR 123)” value ([7]; BEAS-2B, 3.4 mM, 6 or 24 h) was “did not impact”. The “cell proliferation (Ki67)” value ([7]; BEAS-2B, 3.4 mM, 6 or 24 h) was “did not impact”, the “mitochondria accumulation (mitotracker)” value ([7]; BEAS-2B, 3.4 mM, 6 or 24 h) was “did not impact” and the “viral particles production (PFU)” value [8] was “at least one log decrease”. For the same compound, the “reduction in SYTOX labeling (dead cells)” value [9] was “approximately 70%”, the IL-6 production [10] was “significant reduction” and the “TNFα secretion in the BAL fluids” value ([11]; C57Bl/6 mice, 0.6 mg CA intranasally, 24 h) was “significantly decreased”. For the same compound, the “LPS-induced inflammation (NF-kB bioluminescence)” value ([11]; NF-kB transgenic Balb/c mice, 0.6 mg CA intranasally 15 minutes post-stimulation, 24 hours) was “markedly reduced”, the adverse effects [12] was “no adverse effects” and the “overall fecal microbial composition (Aitchison distance)” value ([12]; day 0, 7, 14) was “no differences”. The “IL-6 production, dose-dependent” value ([13]; BEAS-2B stimulated with IAV MOI=1, increasing doses of CA 16 h) was “significant decrease”, the “IL-6 production of IAV-infected epithelial cells” value ([13]; BEAS-2B, IAV MOI=1, 3.4 mM for 16 h) was “reduced” and the “viral particles production (PFU)” value [14] was “at least one log decrease”. For the same compound, the “ERK, AKT and NF-κB signaling pathways” value [15] was “reductions”, the “accumulation of phosphorylated ERK1/2, Akt and p65” value [15] was “inhibited” and the “luciferase activity versus concentration” value [16] was “dose-dependent decrease”. For the same compound, the “reduction of luciferase activity (viral polymerase activity)” value [16] was ~ 75%.
